Measured values published in patent US20140314780A1, “Compositions Using Antibodies Directed to GPNMB and Uses Thereof” (Celldex Therapeutics, Inc., priority 2008, published 2014).

Experiments:
Format in all cases: cell-based, human
[1] = test system: GPNMB; assay: Immunoblotting for GPNMB on whole-cell lysates of cancer cell lines after drug exposure
Source text: Cancer cell lines were of human origin and were obtained from the American Type Culture Collection (Manassas, Va.) and from the National Cancer Institute (Bethesda, Md.) and cultured in RPMI-1640 supplemented with 10% FBS (growth media). Sources of reagents were as follows: RAFKi (553013), MEKi (U0126), MEKi (PD98059), MEKi (444939), ERKi (FR180204), p38 MAPKi (SB202190), p38 MAPKi (SB203580), aurora kinase inhibitor (189404), JNK inhibitor (420119), MMPi (GM6001) were from EMD Chemicals (San Diego, Calif.). ERKi (A6355), RAFKi: (GW5074), ammonium chloride (NH4Cl), chloroquine, monensin, cyclohexamide and emetine were from Sigma (Saint Louis, Mo.). HSP90i (geldanamycin) was from AG Scientific (San Diego, Calif.) and imatinib (Gleevec) was purchased from a pharmacy.
Cells were seeded in 6-well tissue culture dishes at a subconfluent density and allowed to attach overnight. For harvesting cell lysates, media was removed, cells were briefly washed with serum-free media and then 1× Tris-glycine SDS sample buffer (Invitrogen, Carlsbad, Calif.) supplemented with 10 mM dithiothreitol (Sigma) was added directly to the wells. Cell lysates were then collected and boiled for 10 minutes. For preparing conditioned media, drug treatments were performed in a minimum volume of growth media (1.5 mL/well). Following 48 hours of incubation, conditioned media was collected, briefly microfuged, mixed with an equal volume of 2× Tris-glycine SDS sample buffer (Invitrogen, Carlsbad, Calif.) supplemented with 20 mM dithiothreitol (Sigma) and boiled for 10 minutes. For cell lysates, samples were quantified and an equal quantity of protein/lane was resolved on 4-20% gradient polyacrylamide gels (Invitrogen) and then transferred to nitrocellulose filters (Invitrogen). The volume of conditioned media loaded/lane was adjusted based on the protein concentration determined in the respective cell lysates. Immunoblotting was performed using standard procedures and the following primary antibodies: MARTI (sc-20032), TYRP2 (sc-25544), TYRP1 (sc-25543), PMEL17 (sc-15010), MAGEA1 (sc-20033), MCSP (sc-20162), MTf (sc-26651), MCAM (sc-18942), pp-ERK (sc-7976) and ERK (sc-94) (preceding antibodies were purchased from Santa Cruz Biotechnologies, Santa Cruz, Calif.), GPNMB (AF2550; R & D Systems, Minneapolis Minn.), actin (A5060; Sigma). Following incubation with the appropriate horseradish peroxidase-conjugated secondary antibodies, enhanced chemiluminescence (GE Healthcare, Chalfont St. Giles, United Kingdom) was used for detection.

[2] = test system: phospho-ERK (pp-ERK); assay: Immunoblotting for phospho-ERK (level of ERK activation)
Source text: In the experiment presented in FIG. 2A, potential inhibition of the ERK pathway was investigated by immunoblotting for phospho-ERK (pp-ERK), which represents the active form of this signaling molecule.

[3] = test system: GPNMB surface expression on A375 melanoma cells; assay: Flow cytometry of GPNMB surface expression, A375 cells; conditions: for GPNMB surface expression, flow cytometry GeoMean: A375, CR011 (anti-GPNMB) primary antibody
Protocol: (§1) Cells were seeded in 6-well tissue culture dishes at a subconfluent density and allowed to attach overnight. The following day, cells were treated as indicated in the figures/legends, harvested with versene (Invitrogen), washed with PBS and incubated with primary antibody (10 μg/mL) diluted in staining buffer (PBS pH 7.4, 4% FBS, 0.1% sodium azide) for 30 minutes on ice. […] After incubation with primary antibody, samples were washed with staining buffer and then incubated with secondary antibody (PE-conjugated anti-human antibody; 1:100) for 30 minutes on ice. After incubation, samples were washed with staining buffer and examined on a Becton Dickinson FACSCalibur flow cytometer (BD Immunocytometry Systems, San Jose, Calif.). Data analysis was performed with Becton Dickinson Cell Quest software and the geometric mean fluorescence intensity (GeoMean) was determined for each sample.
(§2) For the data shown in Table 37, flow cytometry was performed on intact, non-permeabilized cells using the indicated primary monoclonal antibodies. […] The results are reported as GeoMeans. […] For the data shown in the bottom left panel of Table 37, SKMEL2 (melanoma) cells were treated with MEKi (U0126; 10 uM), imatinib (20 uM), p38i (p38 MAPKi SB202190; 50 uM), NH4Cl (ammonium chloride; 20 mM) or CLQ (chloroquine; 20 uM) for 48 hours prior to analysis. For the data shown in the bottom right panel of Table 37, WM2664 (melanoma) cells were treated with MON (monensin) or MMPi (GM6001) for 48 hours prior to analysis.

[4] = test system: GPNMB surface expression on SF539 glioblastoma cells; assay: Flow cytometry of GPNMB surface expression, SF539 cells; conditions: SF549, CR011 (anti-GPNMB) primary antibody
Protocol: as §1, §2

[5] = test system: GPNMB surface expression on SKMEL2 melanoma cells; assay: Flow cytometry of GPNMB surface expression, SKMEL2 cells; conditions: SKMEL2; CR011 (anti-GPNMB) primary antibody; MEKi (U0126) 10 uM, imatinib 20 uM, p38i (SB202190) 50 uM
Protocol: as §1
For the data shown in Table 37, flow cytometry was performed on intact, non-permeabilized cells using the indicated primary monoclonal antibodies. […] The results are reported as GeoMeans. For the data shown in the top panel of Table 37, A375 (melanoma) or SF539 (glioblastoma) cells were treated with the indicated concentrations of MEKi (U0126), RAFKi (553013) or ERKi (FR180204) for 12, 24 or 48 hours prior to analysis. For the data shown in the bottom left panel of Table 37, SKMEL2 (melanoma) cells were treated with MEKi (U0126; 10 uM), imatinib (20 uM), p38i (p38 MAPKi SB202190; 50 uM), NH4Cl (ammonium chloride; 20 mM) or CLQ (chloroquine; 20 uM) for 48 hours prior to analysis. For the data shown in the bottom right panel of Table 37, WM2664 (melanoma) cells were treated with MON (monensin) or MMPi (GM6001) for 48 hours prior to analysis.

[6] = test system: UACC62 melanoma cells; assay: In vitro growth-inhibition/cytotoxicity assay, UACC62 cells; conditions: UACC62 cells

N#CC(=C(/N)Sc1ccccc1N)/C(C#N)=C(\N)Sc1ccccc1N [Mab U0126]
GPNMB induction (immunoblotting), kinetics and drug concentration [1]: increased with exposure time
GPNMB induction compared to other melanoma-associated proteins [1]: most consistently induced
inhibition of the ERK pathway (phospho-ERK levels) ([2]; A375 and SKMEL2 cell lines (FIG. 3B)): robust and sustained inhibition
inhibition of the ERK pathway (phospho-ERK levels) ([2]; SF539 cells (FIG. 3B)): transient inhibition
GPNMB surface expression, flow cytometry GeoMean ([3]; MEKi (U0126) 5 um, 12 h): 14.7
GPNMB surface expression, flow cytometry GeoMean ([3]; MEKi (U0126) 5 um, 24 h): 16.4
GPNMB surface expression, flow cytometry GeoMean ([3]; MEKi (U0126) 5 um, 48 h): 52.4
GPNMB surface expression, flow cytometry GeoMean ([3]; MEKi (U0126) 20 um, 12 h): 18.3
GPNMB surface expression, flow cytometry GeoMean ([3]; MEKi (U0126) 20 um, 24 h): 22.4
GPNMB surface expression, flow cytometry GeoMean ([3]; MEKi (U0126) 20 um, 48 h): 84.0
GPNMB surface expression ([3]; A375 melanoma, 12, 24 or 48 hours (Table 37, top)): induced GPNMB surface expression
GPNMB surface expression, flow cytometry GeoMean ([4]; MEKi (U0126) 5 um, 12 h): 41.5
GPNMB surface expression, flow cytometry GeoMean ([4]; MEKi (U0126) 5 um, 24 h): 36.3
GPNMB surface expression, flow cytometry GeoMean ([4]; MEKi (U0126) 5 um, 48 h): 41.5
GPNMB surface expression, flow cytometry GeoMean ([4]; MEKi (U0126) 20 um, 12 h): 46.3
GPNMB surface expression, flow cytometry GeoMean ([4]; MEKi (U0126) 20 um, 24 h): 39.2
GPNMB surface expression, flow cytometry GeoMean [5]: 174.5
sensitization to CR011-vcMMAE by pretreatment, CellTiter-Glo assay (ATP) [6]: confirmed
sensitization to growth-inhibitory activity of CR011-vcMMAE by pretreatment [6]: sensitized
